In ChEMBL document CHEMBL4251606, “Design and characterization of α-lipoic acyl shikonin ester twin drugs as tubulin and PDK1 dual inhibitors” (Eur J Med Chem, 2018) one finds IC50, Activity and inhibition data, which are given here for one compound.

The test system of one data set is HepG2. Put plainly: Antiproliferative activity against human HepG2 cells after 24 hrs by MTT assay. The class given is functional, cell-based. The following applies: HepG2, 24 h. Background: Formazan colour is commonly taken as a measure of viable cells.
The test system of the next data set is MDA-MB-231. Put plainly: Antiproliferative activity against human MDA231 cells after 24 hrs by MTT assay. The class given is functional, cell-based. Conditions: MDA-MB-231, 24 h.
In data set [1] the test system is HeLa. Put plainly: Antiproliferative activity against human HeLa cells after 24 hrs by MTT assay. In kind it is functional, cell-based.
A further data set relates to A549. Put plainly: Antiproliferative activity against human A549 cells after 24 hrs by MTT assay. The class given is functional, cell-based. The following applies: A549, 24 h.
The next data set has as its system L02. In words: Antiproliferative activity against human LO2 cells after 24 hrs by MTT assay. In kind it is cell-based. Conditions: L02, 24 h.
The test system of a further data set is HEK-293T. Put plainly: Antiproliferative activity against human 293T cells after 24 hrs by MTT assay. The class given is cell-based.
Data set [2] deals with HeLa. Put plainly: Cell cycle arrest in human HeLa cells assessed as accumulation of cells at G1 phase at 1 uM after 24 hrs by propidium iodide staining-based FACScan flow cytometric analysis (reference value: 64.58%). In kind it is functional. For orientation: In flow cytometry, cells or beads pass a laser one at a time.
Data set [3] has as its system HeLa. In words: Cell cycle arrest in human HeLa cells assessed as accumulation of cells at S phase at 1 uM after 24 hrs by propidium iodide staining-based FACScan flow cytometric analysis (reference value: 20.45%). The class given is functional.
Data set [4] relates to HeLa. Put plainly: Cell cycle arrest in human HeLa cells assessed as accumulation of cells at G2/M phase at 1 uM after 24 hrs by propidium iodide staining-based FACScan flow cytometric analysis (reference value: 14.97%). In kind it is functional.
The test system of data set [5] is HeLa. Put plainly: Cell cycle arrest in human HeLa cells assessed as accumulation of cells at G1 phase at 2 uM after 24 hrs by propidium iodide staining-based FACScan flow cytometric analysis (reference value: 64.58%). In kind it is functional.
Data set [6] relates to HeLa. Put plainly: Cell cycle arrest in human HeLa cells assessed as accumulation of cells at S phase at 2 uM after 24 hrs by propidium iodide staining-based FACScan flow cytometric analysis (reference value: 20.45%). The class given is functional.
For data set [7], the system named is HeLa. In words: Cell cycle arrest in human HeLa cells assessed as accumulation of cells at G2/M phase at 2 uM after 24 hrs by propidium iodide staining-based FACScan flow cytometric analysis (reference value: 14.97%). The class given is functional.
Data set [8] has as its system HeLa. In words: Cell cycle arrest in human HeLa cells assessed as accumulation of cells at G1 phase at 4 uM after 24 hrs by propidium iodide staining-based FACScan flow cytometric analysis (reference value: 64.58%). The class given is functional.
For data set [9], the system named is HeLa. Put plainly: Cell cycle arrest in human HeLa cells assessed as accumulation of cells at S phase at 4 uM after 24 hrs by propidium iodide staining-based FACScan flow cytometric analysis (reference value: 20.45%). The class given is functional.
The test system of data set [10] is HeLa. In words: Cell cycle arrest in human HeLa cells assessed as accumulation of cells at G2/M phase at 4 uM after 24 hrs by propidium iodide staining-based FACScan flow cytometric analysis (reference value: 14.97%). In kind it is functional.
Data set [11] concerns HeLa. In words: Inhibition of microtubule polymerization in human HeLa cells at 4 uM after 24 hrs by rhodamine/DAPI staining-based confocal microscopic analysis. In kind it is cell-based.
Data set [12] has as its system HeLa. Put plainly: Antitumor activity against human HeLa cells xenografted in nude mouse assessed as reduction in tumor size at 1 mg/kg, ip administered once in every 2 days for 15 days relative to control. In kind it is functional, organism-based.
A further data set relates to Mus musculus. Put plainly: Toxicity in nude mouse xenografted with human HeLa cells assessed as loss in body weight at 1 mg/kg, ip administered once in every 2 days for 15 days. The class given is organism-based. The following applies: in vivo. On the technique in general: Xenograft models place foreign cells or tissue in a host animal.

The source made the active and inactive calls. No cut-off for these calls is given here.

The term IC50 denotes the concentration at which inhibition is half-maximal. As for `CC(C)=CC[C@@H](O)C1=CC(=O)c2c(O)ccc(O)c2C1=O` [SHIKONIN], the IC50 was determined as 6.92 µM with HepG2; 8.75 µM in the data set with MDA-MB-231; 6.86 µM in the data set with HeLa [1]; 3.53 µM with A549; 3.41 µM with L02; 62.8 µM with HEK-293T. For the same compound, the Activity stood at 63.83% in the data set on HeLa [2]; 17.42% with HeLa [3]; 18.75% with HeLa [4]; 62.72% with HeLa [5]; 13.25% in the data set on HeLa [6]; 24.03% in the data set on HeLa [7]. The Activity in the data set with HeLa [8] is given as 57.75%; with HeLa [9], 14.13%; in the data set on HeLa [10] it was 28.12%; with Mus musculus it was “Toxic”. Besides, in the data set on HeLa [11], the inhibition entry is “Active”. The outcome with HeLa [12] was Active.
